Experimental data taken from patent US20070098761A1, “Processed fat composition for preventing/ameliorating lifestyle-related diseases” (priority 2003, published 2007).
Where two headings read alike, the source gives them in different places.

Test: Shelf stability test (accelerating test at 80° C.)
Format: physicochemical
Experimental: A shelf stability test of glabrene, glabridin, glabrol and 4′-O-methylglabridin in the above MCT solution was carried out as an accelerating test at 80° C. The MCT solution was kept at 80° C. in a water bath, and the contents of glabrene, glabridin, glabrol and 4′-O-methylglabridin were determined after storage for 1, 3 and 5 hours respectively. The shelf stability was expressed in terms of the ratio of the content after storage to the content before storage, assuming that the content of each compound before storage was 100%.
A shelf stability test of the hydrophobic licorice extract in Comparative Example 1 was carried out in an analogous manner.
A shelf stability test of the ethanol solution in Comparative Example 2 was carried out in an analogous manner.

## CC1(C)C=Cc2c(O)ccc(C3=Cc4ccc(O)cc4OC3)c2O1 [Compound 1, glabrene]
0 h
  Shelf stability (ratio of content after storage to content before storage): 100%

## CC1(C)C=Cc2c(ccc3c2OC[C@@H](c2ccc(O)cc2O)C3)O1 [Compound 2, glabridin]
Ethanol solution (Comparative Example 2), 80° C., after 1 hour
  Shelf stability (ratio of content after storage to content before storage): 96%
Ethanol solution (Comparative Example 2), 80° C., after 3 hour
  Shelf stability (ratio of content after storage to content before storage): 94%
Ethanol solution (Comparative Example 2), 80° C., after 5 hour
  Shelf stability (ratio of content after storage to content before storage): 93%
Ethanol solution (Comparative Example 2), 80° C., at the time of start (set to 100%)
  Shelf stability (ratio of content after storage to content before storage): 100%
Hydrophobic licorice extract (Comparative Example 1), 80° C., after 1 hour
  Shelf stability (ratio of content after storage to content before storage): 91%
Hydrophobic licorice extract (Comparative Example 1), 80° C., after 3 hours
  Shelf stability (ratio of content after storage to content before storage): 88%
Hydrophobic licorice extract (Comparative Example 1), 80° C., after 5 hours
  Shelf stability (ratio of content after storage to content before storage): 86%
Hydrophobic licorice extract (Comparative Example 1), 80° C., at the time of start (set to 100%)
  Shelf stability (ratio of content after storage to content before storage): 100%
MCT solution (Example 1), 80° C., after 1 hour
  Shelf stability (ratio of content after storage to content before storage): 100%
MCT solution (Example 1), 80° C., after 3 hours
  Shelf stability (ratio of content after storage to content before storage): 101%
MCT solution (Example 1), 80° C., after 5 hours
  Shelf stability (ratio of content after storage to content before storage): 97%
MCT solution (Example 1), 80° C., at the time of start (set to 100%)
  Shelf stability (ratio of content after storage to content before storage): 100%
In the ethanol solution, 80° C.
  Stability during storage (in words): unstable
In the hydrophobic licorice extract, 80° C.
  Stability during storage (in words): unstable

## CC(C)=CCc1cc([C@@H]2CC(=O)c3ccc(O)c(CC=C(C)C)c3O2)ccc1O [Compound 3, glabrol]
  Stability during storage (in words): stable
0 h
  Shelf stability (ratio of content after storage to content before storage): 100%

## COc1ccc([C@@H]2COc3c(ccc4c3C=CC(C)(C)O4)C2)c(O)c1 [Compound 4, 4′-O-methylglabridin]
  Shelf stability (ratio of content after storage to content before storage): 100%
  Stability during storage (in words): stable
